Assay results from ChEMBL document CHEMBL5131515, “Identification of Pyridinyltriazine Derivatives as Potent panFGFR Inhibitors against Gatekeeper Mutants for Overcoming Drug Resistance” (J Med Chem, 2022).

Experiments:
[1] = molecular target: Fibroblast growth factor receptor 2 (Homo sapiens, UniProt P21802); experiment: Inhibition of wild-type FGFR2 (unknown origin) by radiometric kinase activity assay
[2] = molecular target: Fibroblast growth factor receptor 3 (Homo sapiens, UniProt P22607); experiment: Inhibition of wild-type FGFR3 (unknown origin) by radiometric kinase activity assay
[3] = molecular target: Fibroblast growth factor receptor 4 (Homo sapiens, UniProt P22455); experiment: Inhibition of wild-type FGFR4 (unknown origin) by radiometric kinase activity assay
[4] = molecular target: Fibroblast growth factor receptor 2 (Homo sapiens, UniProt P21802, V564F)
Description: Inhibition of FGFR2 V564F mutant (unknown origin) by radiometric kinase activity assay

[5] = molecular target: Fibroblast growth factor receptor 3 (Homo sapiens, UniProt P22607, V555M)
[6] = molecular target: Fibroblast growth factor receptor 2 (Homo sapiens, UniProt P21802, N549H)
[7] = molecular target: Fibroblast growth factor receptor 3 (Homo sapiens, UniProt P22607, K650E)
[8] = molecular target: Fibroblast growth factor receptor 3 (Homo sapiens, UniProt P22607, K650M)
BaF3 [9] = experiment: cells; assay type: functional; details: Mus musculus
BaF3 [10] = experiment: Antiproliferative activity against mouse BaF3 cells harboring TEL-FGFR3 assessed as cell growth inhibition by CellTiter-Glo assay; assay type: functional
[11] = Antiproliferative activity against mouse BaF3 cells assessed as cell growth inhibition by CellTiter-Glo assay; details: BaF3 cells
BaF3 [12] = experiment: Antiproliferative activity against mouse BaF3 cells harboring TEL-FGFR4 V550E mutant assessed as cell growth inhibition by CellTiter-Glo assay; assay type: functional
BaF3 [13] = experiment: Antiproliferative activity against mouse BaF3 cells harboring TEL-FGFR4 N535K mutant assessed as cell growth inhibition by CellTiter-Glo assay; assay type: functional
AN3-CA = experiment: Antiproliferative activity against human AN3-CA cells harboring FGFR2 K310R/N549K mutant assessed as cell growth inhibition by CellTiter-Glo assay; assay type: functional
KMS-11 = experiment: Antiproliferative activity against human KMS-11 cells harboring FGFR3 Y373C mutant assessed as cell growth inhibition by CellTiter-Glo assay; assay type: functional
J82 = experiment: Antiproliferative activity against human J82 cells harboring FGFR3 K652E mutant assessed as cell growth inhibition by CellTiter-Glo assay; assay type: functional
[14] = Stability in human liver microsomes assessed as parent compound remaining at 1 uM incubated for 30 mins; assay type: ADME, Microsome; details: read-out: Stability
[15] = Stability in mouse liver microsomes assessed as parent compound remaining at 1 uM incubated for 30 mins; assay type: ADME, Microsome; details: read-out: Stability
[16] = Stability in rat liver microsomes assessed as parent compound remaining at 1 uM incubated for 30 mins; assay type: ADME, Microsome; details: read-out: Stability
[17] = Stability in dog liver microsomes assessed as parent compound remaining at 1 uM incubated for 30 mins; assay type: ADME, Canis lupus familiaris, Microsome; details: read-out: Stability
CYP1A2 = molecular target: T1, CYP1A2 (Homo sapiens, UniProt P05177); experiment: Inhibition of CYP1A2 (unknown origin) assessed as remaining activity at 10 uM relative to control; assay type: ADME; details: read-out: Activity
T1 sequence (P05177 whole entry): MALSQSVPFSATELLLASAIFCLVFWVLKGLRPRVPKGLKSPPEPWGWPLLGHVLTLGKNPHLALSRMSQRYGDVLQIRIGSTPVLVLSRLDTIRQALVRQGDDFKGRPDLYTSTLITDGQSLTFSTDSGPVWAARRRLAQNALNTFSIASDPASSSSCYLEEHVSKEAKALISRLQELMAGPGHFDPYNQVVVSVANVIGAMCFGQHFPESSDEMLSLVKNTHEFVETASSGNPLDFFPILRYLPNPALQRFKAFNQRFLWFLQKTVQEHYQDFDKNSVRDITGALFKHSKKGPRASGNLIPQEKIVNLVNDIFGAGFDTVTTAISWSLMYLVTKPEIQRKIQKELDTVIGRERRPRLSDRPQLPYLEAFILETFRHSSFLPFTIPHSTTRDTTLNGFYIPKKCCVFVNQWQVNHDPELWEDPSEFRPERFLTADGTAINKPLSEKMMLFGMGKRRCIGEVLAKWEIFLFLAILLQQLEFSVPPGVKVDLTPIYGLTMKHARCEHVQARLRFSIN

CYP2C9 = CYP2C9 (Homo sapiens, UniProt P11712); experiment: Inhibition of CYP2C9 (unknown origin) assessed as remaining activity at 10 uM relative to control; assay type: ADME; details: read-out: Activity
CYP2C19 = CYP2C19 (Homo sapiens, UniProt P33261); experiment: Inhibition of CYP2C19 (unknown origin) assessed as remaining activity at 10 uM relative to control; assay type: ADME; details: read-out: Activity
CYP2D6 = CYP2D6 (Homo sapiens, UniProt P10635); experiment: Inhibition of CYP2D6 (unknown origin) assessed as remaining activity at 10 uM relative to control; assay type: ADME; details: read-out: Activity
CYP3A4 = CYP3A4 (Homo sapiens, UniProt P08684); experiment: Inhibition of CYP3A4 (unknown origin) assessed as remaining activity at 10 uM relative to control; assay type: ADME; details: read-out: Activity
[18] = test system: Fibroblast growth factor receptor 2 (Homo sapiens), P21802 [V564F]; experiment: Inhibition of FGFR2 V564F mutant (unknown origin) at 10 uM by radiometric kinase activity assay relative to control
[19] = test system: Fibroblast growth factor receptor 2 (Homo sapiens), P21802 [N549H]; experiment: Inhibition of FGFR2 N549H mutant (unknown origin) at 10 uM by radiometric kinase activity assay relative to control
[20] = test system: Fibroblast growth factor receptor 3 (Homo sapiens), P22607 [V555M]; experiment: Inhibition of FGFR3 V555M mutant (unknown origin) at 10 uM by radiometric kinase activity assay relative to control
BaF3 [21] = experiment: Growth inhibition of mouse BaF3 cells harboring TEL-FGFR3 V555M mutant incubated for 72 hrs by Alamar blue assay; assay type: functional
[22] = Oral bioavailability in mouse at 10 mg/kg; assay type: ADME, organism-based; details: in vivo
[23] = Toxicity in BALB/c mouse xenografted with human AN3-CA cells assessed as body weight loss at 20 to 40 mg/kg, po qd for 15 days measured once every 2 days; assay type: organism-based; details: in vivo, 360 h, dose 20-40 mg/kg, time 15 day

Sequence of Fibroblast growth factor receptor 3 (Homo sapiens, UniProt P22607) (P22607 whole entry): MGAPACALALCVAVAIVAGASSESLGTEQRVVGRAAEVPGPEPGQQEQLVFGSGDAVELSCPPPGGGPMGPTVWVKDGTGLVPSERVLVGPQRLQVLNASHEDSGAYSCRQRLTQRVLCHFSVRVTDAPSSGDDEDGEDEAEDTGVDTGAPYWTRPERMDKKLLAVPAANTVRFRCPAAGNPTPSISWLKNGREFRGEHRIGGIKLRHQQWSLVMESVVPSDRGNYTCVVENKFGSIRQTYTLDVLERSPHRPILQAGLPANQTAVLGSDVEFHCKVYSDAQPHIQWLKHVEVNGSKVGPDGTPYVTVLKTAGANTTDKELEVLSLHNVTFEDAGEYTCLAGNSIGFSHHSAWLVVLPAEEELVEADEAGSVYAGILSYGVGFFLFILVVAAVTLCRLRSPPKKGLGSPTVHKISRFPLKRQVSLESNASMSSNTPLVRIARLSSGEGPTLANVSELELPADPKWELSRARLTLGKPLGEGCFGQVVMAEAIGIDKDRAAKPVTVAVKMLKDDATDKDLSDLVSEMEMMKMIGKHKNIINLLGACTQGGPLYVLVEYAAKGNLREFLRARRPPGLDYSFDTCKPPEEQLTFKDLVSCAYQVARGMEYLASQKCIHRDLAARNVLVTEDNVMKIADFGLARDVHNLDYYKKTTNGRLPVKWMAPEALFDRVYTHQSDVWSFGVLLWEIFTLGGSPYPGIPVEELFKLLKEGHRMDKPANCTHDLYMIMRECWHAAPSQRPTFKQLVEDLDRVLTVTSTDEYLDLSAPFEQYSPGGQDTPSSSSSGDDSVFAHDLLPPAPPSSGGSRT
Sequence of CYP2D6 (P10635 whole entry): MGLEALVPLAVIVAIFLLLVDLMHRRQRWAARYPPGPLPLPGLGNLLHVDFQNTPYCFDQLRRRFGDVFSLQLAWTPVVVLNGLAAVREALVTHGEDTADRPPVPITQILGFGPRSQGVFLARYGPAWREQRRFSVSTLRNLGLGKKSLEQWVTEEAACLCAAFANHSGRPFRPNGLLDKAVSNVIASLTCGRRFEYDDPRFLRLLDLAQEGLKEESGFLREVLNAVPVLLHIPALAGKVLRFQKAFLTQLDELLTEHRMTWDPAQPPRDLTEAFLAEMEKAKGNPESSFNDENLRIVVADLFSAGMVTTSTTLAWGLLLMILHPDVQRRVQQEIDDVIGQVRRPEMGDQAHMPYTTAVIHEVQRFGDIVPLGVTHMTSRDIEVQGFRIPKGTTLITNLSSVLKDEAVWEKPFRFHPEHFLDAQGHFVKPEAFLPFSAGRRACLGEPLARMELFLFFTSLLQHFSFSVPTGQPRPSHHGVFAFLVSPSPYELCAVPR
Sequence of CYP2C19 (P33261 whole entry): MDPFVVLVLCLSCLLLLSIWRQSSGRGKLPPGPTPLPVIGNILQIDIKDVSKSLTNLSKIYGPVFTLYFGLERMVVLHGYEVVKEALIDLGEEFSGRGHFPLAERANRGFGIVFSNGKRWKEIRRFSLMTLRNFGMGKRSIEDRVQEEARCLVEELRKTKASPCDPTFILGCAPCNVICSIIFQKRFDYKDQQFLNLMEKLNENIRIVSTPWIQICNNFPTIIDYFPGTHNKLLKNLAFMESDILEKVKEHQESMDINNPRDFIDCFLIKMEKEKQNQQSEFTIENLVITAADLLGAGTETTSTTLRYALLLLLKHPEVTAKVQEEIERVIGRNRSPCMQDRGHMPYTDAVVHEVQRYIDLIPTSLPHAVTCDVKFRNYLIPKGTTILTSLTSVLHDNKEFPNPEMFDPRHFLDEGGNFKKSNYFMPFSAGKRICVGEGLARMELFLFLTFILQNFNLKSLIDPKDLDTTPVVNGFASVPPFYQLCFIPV
Sequence of Fibroblast growth factor receptor 3 (Homo sapiens, UniProt P22607, K650E) (P22607 23-806 K650E limits assumed): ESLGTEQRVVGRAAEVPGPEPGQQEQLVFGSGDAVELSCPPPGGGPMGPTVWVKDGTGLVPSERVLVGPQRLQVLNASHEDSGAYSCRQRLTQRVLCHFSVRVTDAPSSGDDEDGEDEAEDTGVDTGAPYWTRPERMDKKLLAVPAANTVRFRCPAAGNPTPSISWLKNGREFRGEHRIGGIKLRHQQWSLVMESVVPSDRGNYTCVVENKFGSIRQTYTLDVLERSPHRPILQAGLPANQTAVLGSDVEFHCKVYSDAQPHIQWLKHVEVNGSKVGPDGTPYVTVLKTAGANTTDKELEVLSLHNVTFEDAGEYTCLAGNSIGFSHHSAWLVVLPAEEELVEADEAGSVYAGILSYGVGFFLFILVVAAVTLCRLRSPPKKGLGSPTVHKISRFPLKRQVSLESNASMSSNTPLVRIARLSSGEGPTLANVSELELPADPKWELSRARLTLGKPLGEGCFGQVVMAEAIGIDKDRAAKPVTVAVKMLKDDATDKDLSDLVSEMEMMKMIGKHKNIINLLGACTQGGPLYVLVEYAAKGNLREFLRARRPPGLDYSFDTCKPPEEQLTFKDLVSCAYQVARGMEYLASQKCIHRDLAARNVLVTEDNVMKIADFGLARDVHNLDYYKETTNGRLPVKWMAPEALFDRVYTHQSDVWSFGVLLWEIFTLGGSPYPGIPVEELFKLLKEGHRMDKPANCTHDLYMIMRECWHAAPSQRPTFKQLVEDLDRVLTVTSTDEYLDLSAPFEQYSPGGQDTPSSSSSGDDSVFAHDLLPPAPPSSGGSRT
Sequence of Fibroblast growth factor receptor 2 (Homo sapiens, UniProt P21802) (P21802 whole entry): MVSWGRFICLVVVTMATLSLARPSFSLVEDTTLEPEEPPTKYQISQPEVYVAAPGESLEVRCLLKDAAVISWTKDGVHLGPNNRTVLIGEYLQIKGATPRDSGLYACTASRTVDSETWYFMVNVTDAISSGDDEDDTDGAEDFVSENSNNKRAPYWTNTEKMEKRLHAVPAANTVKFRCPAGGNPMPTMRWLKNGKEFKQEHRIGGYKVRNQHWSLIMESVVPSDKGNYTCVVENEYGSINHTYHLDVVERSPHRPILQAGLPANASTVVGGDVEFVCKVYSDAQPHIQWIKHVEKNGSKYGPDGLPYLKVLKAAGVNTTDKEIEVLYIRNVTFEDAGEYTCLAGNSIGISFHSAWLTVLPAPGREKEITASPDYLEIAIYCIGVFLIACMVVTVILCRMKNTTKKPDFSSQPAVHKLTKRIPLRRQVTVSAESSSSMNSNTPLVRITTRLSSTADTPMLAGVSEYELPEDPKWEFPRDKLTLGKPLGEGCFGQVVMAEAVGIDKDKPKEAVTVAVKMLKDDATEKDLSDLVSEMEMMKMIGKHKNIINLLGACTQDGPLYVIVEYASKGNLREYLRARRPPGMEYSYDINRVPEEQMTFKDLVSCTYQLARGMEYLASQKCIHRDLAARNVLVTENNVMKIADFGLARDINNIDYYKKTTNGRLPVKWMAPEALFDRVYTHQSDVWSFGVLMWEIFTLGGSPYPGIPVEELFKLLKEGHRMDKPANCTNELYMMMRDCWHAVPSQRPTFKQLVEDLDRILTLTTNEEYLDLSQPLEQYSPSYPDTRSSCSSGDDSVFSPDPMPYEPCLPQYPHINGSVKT
Sequence of Fibroblast growth factor receptor 3 (Homo sapiens), P22607 [V555M] (P22607 whole entry V555M): as the sequence (P22607 whole entry) above, with V555M counted along it
Sequence of Fibroblast growth factor receptor 4 (P22455 whole entry): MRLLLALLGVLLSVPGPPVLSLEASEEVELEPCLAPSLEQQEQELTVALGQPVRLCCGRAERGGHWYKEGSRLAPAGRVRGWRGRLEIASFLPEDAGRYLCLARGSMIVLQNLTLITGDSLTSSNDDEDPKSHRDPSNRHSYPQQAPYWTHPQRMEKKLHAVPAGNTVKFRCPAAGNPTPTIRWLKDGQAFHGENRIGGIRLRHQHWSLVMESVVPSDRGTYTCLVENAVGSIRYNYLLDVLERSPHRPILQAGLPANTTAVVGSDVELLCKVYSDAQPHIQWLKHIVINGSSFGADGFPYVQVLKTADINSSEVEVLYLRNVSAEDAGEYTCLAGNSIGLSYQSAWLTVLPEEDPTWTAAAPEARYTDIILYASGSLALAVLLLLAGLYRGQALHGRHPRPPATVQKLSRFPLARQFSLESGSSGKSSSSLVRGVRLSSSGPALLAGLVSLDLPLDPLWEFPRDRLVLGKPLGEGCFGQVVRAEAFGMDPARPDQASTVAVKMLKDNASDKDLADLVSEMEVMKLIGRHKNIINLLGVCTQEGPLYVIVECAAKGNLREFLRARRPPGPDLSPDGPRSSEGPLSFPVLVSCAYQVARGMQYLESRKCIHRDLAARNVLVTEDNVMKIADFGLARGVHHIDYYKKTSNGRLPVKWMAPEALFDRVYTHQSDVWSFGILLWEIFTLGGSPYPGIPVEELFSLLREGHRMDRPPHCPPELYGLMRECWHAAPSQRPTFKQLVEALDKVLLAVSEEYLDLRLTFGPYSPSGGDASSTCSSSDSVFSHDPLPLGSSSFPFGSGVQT

| Compound | IC50 [1] [µM] | IC50 [2] [µM] | IC50 [3] [µM] | IC50 [4] [µM] | IC50 [5] [µM] | IC50 [6] [µM] | IC50 [7] [µM] | IC50 [8] [µM] | GI50 (BaF3 [9]) [µM] | GI50 (BaF3 [10]) [µM] | GI50 [11] [µM] | GI50 (BaF3 [12]) [µM] | GI50 (BaF3 [13]) [µM] | GI50 (AN3-CA) [µM] | GI50 (KMS-11) [µM] | GI50 (J82) [µM] | remaining at 0.5 h, 1 µM [14] [%] | remaining at 0.5 h, 1 µM [15] [%] | activity at 10 µM (CYP1A2) [%] | activity at 10 µM (CYP2C9) [%] | further results |
| --- | --- | --- | --- | --- | --- | --- | --- | --- | --- | --- | --- | --- | --- | --- | --- | --- | --- | --- | --- | --- | --- |
| COc1cc(OC)c(Cl)c(Nc2ncccc2-c2ncnc(Nc3ccc(N4C[C@@H](C)N[C@@H](C)C4)cc3)n2)c1Cl | < 0.0005 | 0.0006 | 0.027 | 0.363 | 0.116 | 0.00052 | < 0.0005 | 0.0261 | 0.733 | 0.005 | 1.53 | 0.354 | 0.52 | 0.015 | 0.237 | 0.428 | 10.2 | 44.8 | 72.6 | 62.3 | remaining at 0.5 h, 1 µM [16]: 11.7%; remaining at 0.5 h, 1 µM [17]: 19%; activity at 10 µM (CYP2C19): 31.8%; activity at 10 µM (CYP2D6): 77.3%; activity at 10 µM (CYP3A4): 13.3% |
| COc1cc(OC)c(Cl)c(Nc2ncccc2-c2ncnc(Nc3cnn(C4CCN(C(C)C)CC4)c3)n2)c1Cl | < 0.0005 | < 0.0005 | 0.0073 | 0.189 | 0.0223 | < 0.0005 | < 0.0005 | 0.0048 | 0.183 | 0.005 | > 5 | 0.749 | 1.68 | 0.021 | 0.034 | 0.547 | 21.8 | 11.5 | 75.9 | 79.1 | activity at 10 µM (CYP2C19): 44.6%; activity at 10 µM (CYP2D6): 81%; activity at 10 µM (CYP3A4): 17.6% |
| CCN1CCN(c2cccc(Nc3ncnc(-c4cccnc4Nc4c(Cl)c(OC)cc(OC)c4Cl)n3)c2)CC1 | < 0.0005 | 0.00058 | 0.101 | 0.578 | 0.134 | 0.0006 | < 0.0005 | 0.0443 | 0.686 | 0.018 | 3.63 | 0.994 | 1.69 | 0.085 | 0.19 | 1.11 |  |  |  |  |  |
| COc1cc(N2CCOCC2)ccc1Nc1ncnc(-c2cccnc2Nc2c(Cl)c(OC)cc(OC)c2Cl)n1 |  | 1.55 |  |  |  |  |  |  | > 5 | > 5 | > 5 |  |  | > 50 | > 50 | 31.2 |  |  |  |  | inhibition [18]: < 50%; inhibition [19]: < 50%; inhibition [20]: < 50% |
| Cc1nc2ccc(-n3ncc(C(=O)c4cc5ccccc5[nH]4)c3N)cc2[nH]1 [FGFR INHIBITOR DEBIO 1347] |  |  |  |  |  |  |  |  |  |  |  |  |  |  |  |  |  |  |  |  | GI50 (BaF3 [21]): 8.24 µM |
| COc1cc(OC)c(Cl)c(Nc2ncccc2-c2ncnc(Nc3ccc(N4CCOCC4)nc3OC)n2)c1Cl |  | 1.71 |  |  |  |  |  |  | > 5 | > 5 | > 5 |  |  | > 50 | > 50 | 31 |  |  |  |  | inhibition [18]: < 50%; inhibition [19]: < 50%; inhibition [20]: < 50% |
| COc1cc(OC)c(Cl)c(Nc2ncccc2-c2ncnc(Nc3cnn(C4CCNCC4)c3)n2)c1Cl | < 0.0005 | 0.00098 | 0.0263 | 0.727 | 0.268 | 0.00253 | < 0.0005 | 0.0109 | 1.02 | 0.01 | > 5 | 2.59 | 3.65 | 0.029 | 0.111 | 0.977 | 62.6 | 62.1 | 72.8 | 89.9 | bioavailability [22]: 13.2%; Activity [23]: Non-Toxic; remaining at 0.5 h, 1 µM [16]: 65.4%; remaining at 0.5 h, 1 µM [17]: 66.9%; activity at 10 µM (CYP2C19): 51%; activity at 10 µM (CYP2D6): > 100%; activity at 10 µM (CYP3A4): 44.1% |
| COc1ccccc1Nc1ncnc(-c2cccnc2Nc2c(Cl)c(OC)cc(OC)c2Cl)n1 |  | 0.275 |  |  |  |  |  |  | > 5 | 4.12 | > 5 |  |  | 5.55 | > 50 | 31.2 |  |  |  |  | inhibition [18]: < 50%; inhibition [19]: < 50%; inhibition [20]: < 50% |
